Among the data in PubChem BioAssay (NCI) are TGI values, retold here.

Test in all cases: NCI anticancer screen, dose series, 48 h
Assay [1] deals with K-562 leukemia.
The test system of assay [2] is DU-145 prostate.
The test system of assay [3] is M14 melanoma.
The test system of assay [4] is SN12C renal.
Assay [5] relates to T-47D breast.
The subject of assay [6] is EKVX NSCLC.
In assay [7] the test system is HCC-2998 colon.
The test system of assay [8] is OVCAR-5 ovarian.
Assay [9] concerns MDA-N.
In assay [10] the test system is MCF7 breast.
The test system of assay [11] is NCI/ADR-RES ovarian.
Assay [12] deals with MDA-MB-231 breast.
Assay [13] deals with SK-MEL-28 melanoma.
Assay [14] concerns LOX IMVI melanoma.
Assay [15] concerns SNB-75 CNS.
Assay [16] deals with SW-620 colon.
In assay [17] the test system is SF-539 CNS.
Assay [18] deals with 786-0 renal.

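Growth conditions: 96-well plates. Treatment: test compound, 48 hours, 5 concentrations. Analysis: linear interpolation between bracketing concentrations; unreached endpoints set to highest concentration. Definition used: TGI = concentration required for complete inhibition of growth.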

Consider `COc1ccc(NC2=NCCO2)c2ccccc12`, for which the TGI in assay [1], in assay [2], in assay [3], in assay [4], in [5] and in [6] was more than 10 µM throughout. The TGI in assay [7], in assay [8], in [9], in [10], in assay [11] and in assay [12] was more than 10 µM each time. The TGI in [13], in assay [14], in assay [15], in assay [16] and in assay [17] was more than 10 µM in each case.
Turning to `Cc1ccc(S(=O)(=O)N/N=C2\C=C[C@]3(CC2)C(=O)N(C)c2ccccc23)cc1`, the TGI in assay [1], in [2], in [3], in assay [4], in assay [5] and in assay [6] was more than 100 µM in each case. Moreover, the TGI in [7], in assay [8], in assay [9], in [10], in assay [11] and in assay [12] was more than 100 µM throughout. For the same compound, the TGI in [18], in [13], in assay [14], in assay [15] and in assay [16] was more than 100 µM each time.
Regarding `O=C(/C=C/c1ccc(O)c(O)c1)OCCOC(=O)/C=C/c1ccc(O)c(O)c1`, the TGI in [1] was 63.2 µM; in assay [2], 79.8 µM; in assay [3], 28.5 µM; in assay [4], 65.1 µM; in [5] it was 51.2 µM; in assay [6], 83.1 µM. For the same compound, the TGI is more than 100 µM in assay [7]; 65.8 µM in assay [8]; 41.6 µM in assay [9]; 90.9 µM in [10]; more than 100 µM in assay [11]; more than 100 µM in assay [12]. The TGI in [18] was more than 100 µM; in assay [13], more than 100 µM; in [14] it was 93.3 µM; in assay [16], more than 100 µM; in assay [17], 52.6 µM.
As for `Cc1[nH]c2ccccc2c1C=Nc1ccc(Oc2ccccc2)cc1`, the TGI in assay [1] came out at 58.1 µM; in assay [2], 30.4 µM; in assay [3], 30.3 µM; in assay [4] it was 31.9 µM; in assay [5] it was 40.5 µM; in [6] it was 27.4 µM. For the same compound, the TGI in assay [8] is 30 µM; in assay [9] it was 31.9 µM; in assay [10] it was 39.7 µM; in assay [11], 38.8 µM; in [12] it was 32.2 µM; in assay [18], 30.3 µM. The TGI in assay [13] stood at 34.7 µM; in assay [14] it was 32.8 µM; in [15] it was 26.1 µM; in [16], 42.6 µM; in assay [17], 33 µM.
Consider `N#Cc1c(C#N)c(SSc2c(C#N)c(C#N)c(N)n2-c2ccccc2)n(-c2ccccc2)c1N`, for which the TGI in assay [1] is more than 100 µM; in assay [2] it was 39 µM; in assay [4] it was 38.3 µM; in [5], 5.29 µM; in [6], 59.5 µM; in [7], 51 µM. Besides, the TGI in [8] was more than 62.5 µM; in assay [9], more than 56.7 µM; in [10], 5.84 µM; in assay [11] it was more than 71.4 µM; in [12] it was more than 69.6 µM; in assay [13] it was 40.9 µM. Moreover, the TGI in assay [14] is more than 100 µM; in assay [15], more than 70 µM; in assay [16], 3.43 µM; in [17], more than 100 µM.
As for `CC1=C(C(=O)OC(C)C)C(c2ccccc2[N+](=O)[O-])C(C(=O)OC(CO[N+](=O)[O-])CO[N+](=O)[O-])=C(C)N1` (centres undefined), the TGI in assay [1] is 71.6 µM; in [2], more than 100 µM; in assay [3], 14.3 µM; in assay [4], 52.6 µM; in assay [5] it was more than 100 µM; in assay [6], 18.8 µM. Moreover, the TGI in assay [7] is 43 µM; in [8], more than 100 µM; in assay [9], 8.43 µM; in assay [10] it was 27.9 µM; in assay [11], 12.2 µM; in assay [12], 35.4 µM. Besides, the TGI came to 14.4 µM in [18]; 17.9 µM in assay [13]; 11.3 µM in assay [14]; 8.19 µM in assay [15]; 18.9 µM in assay [16].
`O=C(/C=C/c1ccc(Cl)c(Cl)c1)Oc1ccc(/C=C2\CCCCC2=O)cc1`: the TGI in assay [2], in assay [3], in assay [4], in assay [5], in assay [6] and in assay [7] was more than 100 µM throughout. The TGI in assay [8], in [9], in assay [10], in [11], in assay [12] and in assay [18] was more than 100 µM in each case. For the same compound, the TGI in assay [13], in [14], in [15], in [16] and in [17] was more than 100 µM in each case.
As to `Cc1cc(=Nc2ccc3c(c2)c(N)cc(C)[n+]3C)nc(N)n1C`, the TGI in assay [1], in assay [2], in [3], in assay [4], in assay [5] and in assay [6] was more than 100 µM each time. Also, the TGI in assay [8], in [9], in [10], in assay [11], in assay [12] and in [18] was more than 100 µM each time. In addition, the TGI in [13], in assay [14], in [15], in assay [16] and in assay [17] was more than 100 µM each time.
For the compound `Fc1ccc(C(OCCN2CCC3CCC(C2)N3Cc2cc3ccccc3[nH]2)c2ccc(F)cc2)cc1` (centres undefined), the TGI in assay [2] was determined as 3.59 µM; in assay [3], 2.94 µM; in [4], 3.05 µM; in [5] it was 3.18 µM; in assay [6] it was 3.73 µM; in assay [7] it was 3.06 µM. Besides, the TGI is 4.18 µM in assay [8]; 3.1 µM in [9]; 3.57 µM in assay [10]; 3.1 µM in assay [11]; 3.22 µM in assay [12]; 3.08 µM in assay [18]. For the same compound, the TGI in assay [13] amounted to 3.04 µM; in assay [14], 3.18 µM; in [15], 3.97 µM; in assay [16] it was 3.78 µM; in assay [17], 3.01 µM.
For the compound `CC1(C)CC(=O)c2c(nc3ccc4ccccc4c3c2-c2ccc(NC(=O)CCCCC(=O)Nc3ccc(-c4c5c(nc6ccc7ccccc7c46)CC(C)(C)CC5=O)cc3)cc2)C1`, the TGI in assay [1], in assay [2], in assay [3], in assay [4], in assay [5] and in assay [6] was more than 100 µM each time. The TGI in [8], in [9], in assay [10], in assay [11], in assay [12] and in [18] was more than 100 µM throughout. Further, the TGI in [13], in assay [14], in [15], in assay [16] and in assay [17] was more than 100 µM each time.
Regarding `Nc1cccc(OCc2nc(N)nc(N)c2-c2ccc(Cl)cc2)c1`, the TGI in assay [1], in assay [2], in assay [3], in [4], in [5] and in assay [6] was more than 100 µM each time. Further, the TGI in [8], in assay [9], in assay [10], in [11], in [12] and in assay [18] was more than 100 µM in each case. Further, the TGI in [13], in [14], in assay [15] and in assay [16] was more than 100 µM in each case.
`COc1cc2c(cc1OC)CCN=C2`: the TGI in assay [2], in assay [3], in assay [4], in assay [5], in assay [7] and in [8] was more than 100 µM each time. Also, the TGI in assay [9], in assay [10], in assay [11], in assay [12], in assay [13] and in assay [14] was more than 100 µM in each case. The TGI in [15] and in assay [16] was more than 100 µM in each case.
`Cc1cccc2c1C(=O)C(C1OC(=O)c3ccccc31)C2` (centres undefined): the TGI in assay [1], in assay [2], in assay [4], in assay [5], in assay [6] and in assay [7] was more than 100 µM in each case. For the same compound, the TGI in assay [8], in assay [9], in [10], in assay [11], in [12] and in assay [18] was more than 100 µM throughout. Moreover, the TGI in [13], in [14], in assay [15], in [16] and in assay [17] was more than 100 µM each time.
As for `C#CCOC(=O)c1ccccc1OC(C)=O`, the TGI in [1], in [2], in [3], in [4], in assay [5] and in assay [6] was more than 100 µM throughout. For the same compound, the TGI in assay [8], in [9], in assay [10], in assay [11], in [12] and in assay [18] was more than 100 µM each time. Moreover, the TGI in assay [14], in [15], in [16] and in [17] was more than 100 µM each time.
`C[C@@H]1OC(=O)C[C@H]2CC(=O)N(CCc3cn(S(=O)(=O)C(F)(F)F)c4ccccc34)C[C@@H]21`: the TGI in assay [1], in assay [2], in assay [3], in [5], in assay [6] and in [7] was more than 100 µM in each case. The TGI in [8], in [9], in assay [10], in [11], in assay [12] and in assay [18] was more than 100 µM each time. The TGI in assay [13], in [15] and in assay [16] was more than 100 µM throughout.
In the case of `CSc1c(C#N)c2n(c3ccccc3[n+]2C)c2ncccc12`, the TGI in [1] was more than 100 µM; in [2], 47.2 µM; in assay [3] it was 52.6 µM; in assay [4], 67.5 µM; in assay [5], 80 µM; in assay [6], 50.5 µM. The TGI in [7] was more than 100 µM; in assay [8], 84.6 µM; in [9] it was 58.6 µM; in assay [10] it was 42.8 µM; in assay [11] it was 85.5 µM; in assay [12], 46.9 µM. Moreover, the TGI in [18] was 50.3 µM; in assay [13], 49.1 µM; in [14], 34.1 µM; in [15], 50.4 µM; in [16] it was more than 100 µM.
